In brackets after ≈: the same amount, converted by molar mass.
What was measured:
[1] = Mouse PK, intravenous 0.5 mg/kg; assay type: in vivo; settings: i.v. 0.5 mg/kg, male FVB mice, mixture
CDC2L5 = molecular target: T1, CDC2L5 (Homo sapiens, UniProt Q14004); experiment: KINOMEscan scanMAX; assay type: binding; settings: CDC2L5, 2000 nM
T1 construct: purchased DiscoverX (KINOMEscan scanMAX service)
From the text: (§1) Nat. Biotechnol. 23, 329-336 (2005).
(§2) Percent Control (% Ctrl).
(§3) % Ctrl=100×(TS−CPOS)/(CNEG−CPOS) (eqn 1)

FLT3(ITD) = experiment: KINOMEscan scanMAX; assay type: binding; settings: 2000 nM
From the text: as §1, §2, §3

FLT3(ITD, D835V) = experiment: KINOMEscan scanMAX; assay type: binding; settings: 2000 nM
From the text: as §1, §2, §3

FLT3(ITD, F691L) = experiment: KINOMEscan scanMAX; assay type: binding; settings: 2000 nM
From the text: as §1, §2, §3

PFCDPK1(P. falciparum) = molecular target: T2, PFCDPK1(P. falciparum) (Plasmodium falciparum, UniProt P62344); experiment: KINOMEscan scanMAX; assay type: binding; settings: 2000 nM
T2 construct: DNA label (qPCR read-out); purchased DiscoveRx (KINOMEscan scanMAX)
From the text: as §1, §2, §3

PFPK5(P. falciparum) = molecular target: T3, PFPK5(P. falciparum) (Plasmodium falciparum, UniProt P61075); experiment: KINOMEscan scanMAX; assay type: binding; settings: 2000 nM
T3 construct: purchased KINOMEscan (DiscoveRx) scanMAX panel
From the text: as §1, §2, §3

PKNB(M. tuberculosis) = molecular target: T4, PKNB(M. tuberculosis) (Mycobacterium tuberculosis, UniProt P9WI81); experiment: KINOMEscan scanMAX; assay type: binding; settings: 2000 nM
T4 construct: purchased DiscoveRx (KINOMEscan scanMAX panel)
From the text: as §1, §2, §3

PRP4 = molecular target: T5, PRP4 (Homo sapiens, UniProt Q13523); experiment: KINOMEscan scanMAX; assay type: binding; settings: PRP4, 2000 nM
T5 construct: DNA label (qPCR read-out); purchased DiscoverX (KINOMEscan)
From the text: as §1, §2, §3

MYC-CAP-CR cells = experiment: Short-term cell proliferation assay, MYC-CAP-CR; assay type: cell-based, murine; settings: androgen-containing media
From the text: (§4) MYC-CaP-CR cells (Ellis L. et al., 2012. Prostate 72(6):587-591) were selected for castration resistance from genetically engineered MYC-CaP cells that express MYC from an AR-responsive promoter (Watson P A, et al., 2005. Cancer Res 65(24):11565-11571). Castration resistance in these cells is associated with the overexpression of full-length AR rather than an AR variant, such as AR-V7 in 22rv1 (Olson B M, et al., 2017. Cancer immunology research 5(12):1074-1085).

MYC-CaP-CR tumors = MYC-CaP-CR tumors subcutaneous in intact FVB male mice; assay type: in vivo, mouse
From the text: as §4

[2] = test system: 4T1 murine TNBC lung metastasis; experiment: 4T1 breast cancer metastasis survival after primary tumor removal; assay type: in vivo, mouse; settings: 15u 25 mg/kg oral b.i.d. after removal of the primary 4T1 tumor
Description: 4T1 is a murine triple-negative breast cancer (TNBC) cell line, which is highly metastatic to the lungs. […] Parental and CDK8-knockdown 4T1 cells (n=10) were injected orthotopically in the mammary fat pad and the primary tumors were removed 17 days later. Following surgery, all the mice eventually died with lung metastases. […] However, the loss of CDK8 was associated with a strong increase in the survival of mice (FIG. 10C). […]

[3] = Oral PK by formulation, male Sprague Dawley rats 30 mg/kg; assay type: in vivo, rat; settings: oral 30 mg/kg
Description: We have also compared the PK of Suspension Vehicle 1 and Liquid formulation 2 in male Sprague Dawley rats, after oral administration at 30 mg/kg.

[4] = MTD, medicated diet 4 or 5 weeks, CD-1 mice; assay type: in vivo, mouse; settings: female CD-1 mice, 1000 ppm medicated diet, first week
Description: In another long-term MTD in vivo assay, groups of male and female CD-1 mice were fed regular diet (control) or 15u-medicated diet (500 ppm or 1000 ppm) for 4 or 5 weeks (FIG. 16B). The daily doses of 500 ppm and 1000 ppm groups were estimated to be about 50-100 mg/kg and 100-200 mg/kg, respectively, based on daily diet consumption.

[5] = test system: alkaline phosphatase (ALPase); settings: concentration that enhances ALPase activity to 200% of control, ST2 cells; cited from earlier work
[6] = test system: CRPC cell line 22rv1 xenograft
MV4-11 cells = experiment: cells; settings: Homo sapiens, MV4-11, read-out: Inhibition Potency MV4-11-Luc Assay
in vivo = settings: female, CD-1, mouse, in vivo, po, 30 mg/kg
CSNK1E = CSNK1E (Homo sapiens, UniProt P49674); experiment: Kd Elect binding assay (DiscoverX)
[7] = Oral PK, male Cynomolgus monkeys 25 mg/kg; settings: Liquid formulation 2, oral 25 mg/kg
[8] = Solubility of 15u in aqueous solution and vehicles
[9] = 50 mg/kg orally daily, castrated male nude mice

T1 sequence (Q14004 whole entry): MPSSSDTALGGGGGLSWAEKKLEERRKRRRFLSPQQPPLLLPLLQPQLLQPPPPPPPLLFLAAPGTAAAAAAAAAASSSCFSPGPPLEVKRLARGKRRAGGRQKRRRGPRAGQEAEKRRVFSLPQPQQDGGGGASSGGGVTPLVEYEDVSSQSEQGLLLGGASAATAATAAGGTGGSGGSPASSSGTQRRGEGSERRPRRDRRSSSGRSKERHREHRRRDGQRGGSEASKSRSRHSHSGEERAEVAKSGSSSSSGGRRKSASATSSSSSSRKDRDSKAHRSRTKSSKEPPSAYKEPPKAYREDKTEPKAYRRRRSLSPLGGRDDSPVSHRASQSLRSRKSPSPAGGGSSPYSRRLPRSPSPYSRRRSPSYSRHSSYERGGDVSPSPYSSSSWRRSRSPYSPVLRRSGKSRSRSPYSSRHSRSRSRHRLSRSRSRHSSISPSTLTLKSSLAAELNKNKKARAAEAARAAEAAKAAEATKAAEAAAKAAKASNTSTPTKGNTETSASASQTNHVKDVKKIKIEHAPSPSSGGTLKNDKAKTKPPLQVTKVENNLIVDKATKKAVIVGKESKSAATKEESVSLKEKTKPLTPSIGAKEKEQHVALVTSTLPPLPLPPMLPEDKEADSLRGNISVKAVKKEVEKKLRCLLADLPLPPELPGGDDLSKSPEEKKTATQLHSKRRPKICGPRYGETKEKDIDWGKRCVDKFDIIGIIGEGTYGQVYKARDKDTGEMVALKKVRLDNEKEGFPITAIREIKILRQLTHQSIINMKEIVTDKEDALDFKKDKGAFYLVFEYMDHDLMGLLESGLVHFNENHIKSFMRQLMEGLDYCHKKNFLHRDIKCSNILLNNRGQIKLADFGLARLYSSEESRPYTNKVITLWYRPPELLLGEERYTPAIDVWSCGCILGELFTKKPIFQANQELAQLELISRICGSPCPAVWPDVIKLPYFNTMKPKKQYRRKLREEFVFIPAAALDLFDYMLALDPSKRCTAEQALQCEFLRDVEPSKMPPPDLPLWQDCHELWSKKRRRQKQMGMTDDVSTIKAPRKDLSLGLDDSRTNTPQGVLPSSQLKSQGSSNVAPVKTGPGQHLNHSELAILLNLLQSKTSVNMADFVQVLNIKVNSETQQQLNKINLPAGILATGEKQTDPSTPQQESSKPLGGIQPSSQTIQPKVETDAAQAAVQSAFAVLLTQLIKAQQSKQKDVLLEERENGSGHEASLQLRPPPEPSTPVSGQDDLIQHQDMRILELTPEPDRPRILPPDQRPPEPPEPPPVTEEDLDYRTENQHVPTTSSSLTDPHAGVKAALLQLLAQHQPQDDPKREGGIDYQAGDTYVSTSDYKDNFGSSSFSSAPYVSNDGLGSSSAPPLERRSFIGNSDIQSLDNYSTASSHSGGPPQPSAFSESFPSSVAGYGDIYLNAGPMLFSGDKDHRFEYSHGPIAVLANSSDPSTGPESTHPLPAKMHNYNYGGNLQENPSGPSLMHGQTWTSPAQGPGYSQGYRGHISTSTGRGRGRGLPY
T3 sequence (P61075 whole entry): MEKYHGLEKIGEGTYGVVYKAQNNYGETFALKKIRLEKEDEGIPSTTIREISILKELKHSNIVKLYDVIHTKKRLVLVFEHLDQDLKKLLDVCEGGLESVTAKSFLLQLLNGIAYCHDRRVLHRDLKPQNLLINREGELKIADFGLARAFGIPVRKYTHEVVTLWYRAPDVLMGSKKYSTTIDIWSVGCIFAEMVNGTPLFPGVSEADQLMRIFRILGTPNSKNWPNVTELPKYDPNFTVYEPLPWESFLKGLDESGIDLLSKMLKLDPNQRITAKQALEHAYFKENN
T4 sequence (P9WI81 whole entry): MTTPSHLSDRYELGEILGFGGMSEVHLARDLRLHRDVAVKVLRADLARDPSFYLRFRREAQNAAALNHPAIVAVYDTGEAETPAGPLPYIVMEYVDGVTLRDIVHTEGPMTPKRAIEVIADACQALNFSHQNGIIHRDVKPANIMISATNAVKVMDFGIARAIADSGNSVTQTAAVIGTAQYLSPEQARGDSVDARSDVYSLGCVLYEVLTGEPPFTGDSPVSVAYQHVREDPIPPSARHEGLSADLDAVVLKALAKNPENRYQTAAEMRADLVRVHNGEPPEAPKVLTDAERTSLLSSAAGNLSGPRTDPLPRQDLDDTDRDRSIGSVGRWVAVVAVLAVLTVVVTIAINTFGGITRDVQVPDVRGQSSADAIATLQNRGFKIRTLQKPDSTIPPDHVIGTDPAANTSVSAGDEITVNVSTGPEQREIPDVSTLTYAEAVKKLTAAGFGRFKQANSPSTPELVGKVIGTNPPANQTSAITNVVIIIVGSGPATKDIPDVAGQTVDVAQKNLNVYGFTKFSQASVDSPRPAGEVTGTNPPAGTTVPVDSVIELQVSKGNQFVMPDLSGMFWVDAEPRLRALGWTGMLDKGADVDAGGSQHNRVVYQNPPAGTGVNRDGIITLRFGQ
T5 sequence (Q13523 whole entry): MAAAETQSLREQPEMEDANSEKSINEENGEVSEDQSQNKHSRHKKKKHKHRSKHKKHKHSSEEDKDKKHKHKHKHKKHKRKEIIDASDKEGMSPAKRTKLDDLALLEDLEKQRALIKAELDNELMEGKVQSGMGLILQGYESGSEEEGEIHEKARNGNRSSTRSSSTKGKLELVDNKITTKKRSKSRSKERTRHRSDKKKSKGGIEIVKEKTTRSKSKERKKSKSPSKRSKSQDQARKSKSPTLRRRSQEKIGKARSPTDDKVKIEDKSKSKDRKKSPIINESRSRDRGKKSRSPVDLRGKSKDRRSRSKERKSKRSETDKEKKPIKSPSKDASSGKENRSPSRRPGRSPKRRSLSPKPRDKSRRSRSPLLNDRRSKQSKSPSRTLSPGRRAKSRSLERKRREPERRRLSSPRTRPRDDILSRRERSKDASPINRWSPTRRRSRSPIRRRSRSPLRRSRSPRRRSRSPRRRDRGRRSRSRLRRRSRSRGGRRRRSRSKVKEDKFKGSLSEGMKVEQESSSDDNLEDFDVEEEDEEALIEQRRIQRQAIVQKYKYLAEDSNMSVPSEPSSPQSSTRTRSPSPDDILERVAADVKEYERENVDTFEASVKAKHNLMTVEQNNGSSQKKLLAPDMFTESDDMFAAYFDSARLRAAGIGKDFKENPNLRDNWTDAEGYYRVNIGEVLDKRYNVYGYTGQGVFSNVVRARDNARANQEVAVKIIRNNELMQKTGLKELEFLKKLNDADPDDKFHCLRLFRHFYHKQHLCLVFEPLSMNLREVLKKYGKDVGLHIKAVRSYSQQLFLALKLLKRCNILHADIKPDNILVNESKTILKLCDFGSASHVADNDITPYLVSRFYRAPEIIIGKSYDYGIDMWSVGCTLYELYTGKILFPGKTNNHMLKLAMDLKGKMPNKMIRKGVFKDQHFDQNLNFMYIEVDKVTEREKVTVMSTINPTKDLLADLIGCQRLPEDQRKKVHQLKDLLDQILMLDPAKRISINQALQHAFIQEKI
T2 sequence (P62344 whole entry): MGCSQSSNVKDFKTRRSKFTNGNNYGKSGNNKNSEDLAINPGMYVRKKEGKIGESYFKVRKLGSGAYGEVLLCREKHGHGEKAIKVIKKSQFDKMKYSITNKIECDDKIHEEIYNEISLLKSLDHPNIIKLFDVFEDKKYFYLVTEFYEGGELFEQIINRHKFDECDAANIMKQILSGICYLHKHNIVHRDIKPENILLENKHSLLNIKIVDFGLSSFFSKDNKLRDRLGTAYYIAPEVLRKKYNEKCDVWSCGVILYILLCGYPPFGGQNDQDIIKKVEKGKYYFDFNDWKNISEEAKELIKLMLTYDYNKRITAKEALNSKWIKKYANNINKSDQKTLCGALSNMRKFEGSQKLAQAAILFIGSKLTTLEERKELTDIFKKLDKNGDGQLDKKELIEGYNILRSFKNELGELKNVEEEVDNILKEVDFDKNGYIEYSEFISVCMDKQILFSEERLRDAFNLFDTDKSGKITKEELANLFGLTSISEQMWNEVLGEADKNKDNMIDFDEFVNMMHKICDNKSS
Sequence of CSNK1E (P49674 whole entry): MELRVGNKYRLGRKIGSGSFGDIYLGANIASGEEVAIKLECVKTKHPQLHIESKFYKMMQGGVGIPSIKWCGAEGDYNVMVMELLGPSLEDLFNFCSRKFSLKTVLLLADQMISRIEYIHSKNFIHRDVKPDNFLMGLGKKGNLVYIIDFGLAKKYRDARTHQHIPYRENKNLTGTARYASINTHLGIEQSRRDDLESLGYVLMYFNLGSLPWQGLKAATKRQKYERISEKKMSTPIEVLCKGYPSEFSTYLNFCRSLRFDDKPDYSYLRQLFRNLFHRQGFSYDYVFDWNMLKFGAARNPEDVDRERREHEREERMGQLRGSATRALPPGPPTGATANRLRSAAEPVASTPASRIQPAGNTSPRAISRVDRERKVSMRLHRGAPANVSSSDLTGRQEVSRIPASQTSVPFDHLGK

Compound: CN(C)C(=O)c1ccc(N2CCCN(c3ccnc4sc(C(N)=O)c(N)c34)CC2)cc1 [Compound 15u, 3-amino-4-(4-(4-(dimethylcarbamoyl)phenyl)-1,4-diazepan-1-yl)thieno[2,3-b]pyridine-2-carboxamide]
- Elimination rate [1]: 1.98 h⁻¹
- % Ctrl (CDC2L5): 71 % Ctrl
- % Ctrl (FLT3(ITD)): 82 % Ctrl
- % Ctrl (FLT3(ITD, D835V)): 41 % Ctrl
- % Ctrl (FLT3(ITD, F691L)): 95 % Ctrl
- % Ctrl (PFCDPK1(P. falciparum)): 94 % Ctrl
- % Ctrl (PFPK5(P. falciparum)): 68 % Ctrl
- % Ctrl (PKNB(M. tuberculosis)): 100 % Ctrl
- % Ctrl (PRP4): 100 % Ctrl
- MYC-CAP-CR cell growth (MYC-CAP-CR cells): little effect
- MYC-CaP-CR tumor volume and weight (MYC-CaP-CR tumors): modest effect
- mouse survival of the metastatic disease [2]: significantly increased mouse survival
- increase of AUC, Liquid formulation 2 vs Suspension Vehicle 1 [3]: > 3 fold
- weight loss [4]: 5-10%
- ALP activity Assay EC200 [5]: 31.9 nM
- 22rv1 tumor growth over the long term ([6]; 50 mg/kg once a day, 25 mg/kg twice a day, 50 mg/kg twice a day): drastically inhibited 22rv1 tumor growth
- 22rv1 xenograft tumor growth [6, 9]: strongly suppressed the tumor growth
- adverse effects and mouse body weight [6, 9]: no apparent adverse effects and no diminution of mouse body weight
- IC50 (MV4-11 cells): 30 nM
- AUC(0-t) (in vivo): 6600 ng·h/mL
- Kd (CSNK1E): 280 nM
- adverse effects [7]: no adverse effects were observed
- amount of the compound in the liquid phase ([8]; 5% DMSO, 20% HPBCD): 0.2 mg/mL
- solubility ([8]; Liquid formulation 1, pH 2.1, aqueous with cosolvent or surfactant or cyclodextrin): ~5000 µg/mL (≈ 11.4 mM)
- solubility ([8]; Liquid formulation 2, organic solvent or mixture): ≤ 20000 µg/mL
- solubility ([8]; aqueous solution, pH 7, water): < 10 µg/mL

Source: patent US20220226343A1, “3-AMINO-4-[4-[4 (DIMETHYLCARBAMOYL) PHENYL]-1,4-DIAZEPAN-1-YL]THIENO[2,3-B]PYRIDINE-2-CARBOXAMIDE FOR USE IN CANCER THERAPY AND FORMULATIONS COMPRISING THE SAME” (University of South Carolina, priority 2019, published 2022)
